Experimental data from patent publication US10792248B2, “Aqueous suspension preparation comprising nanoparticles of macrolide antibacterial agent” (ACTIVUS PHARMA CO., LTD., priority 2013, dated 2020).
Converted amounts (≈) assume the structure as drawn. Read-outs that look alike come from different tables or passages of the source.

Experiments:
Pseudomonas aeruginosa = test: Minimum inhibitory concentration (MIC) test, broth microdilution method; assay type: cell-based; conditions: 35±1° C., 18 to 24 hours, replicates
Procedure: (§1) An MIC test was conducted by applying the minimum inhibitory concentration (MIC) measurement method by the broth microdilution method (the standard method of Japanese Society of Chemotherapy). The clarithromycin suspension prepared in Example 6 (1) (test substance 1) was used as a test substance. An unpulverized clarithromycin suspension (test substance 2) and a clarithromycin solution in DMSO (test substance 3) were used as controls for comparisons.
(§2) Each of the test substances was stirred for 15 seconds or more using a vortex mixer before dilution. The clarithromycin-containing samples (test substances 1 to 3) were diluted with Mueller Hinton II broth to be a concentration of 250 μg/mL, and then two-fold diluted serially to prepare mediums containing the each sample at a final drug concentration of 0.012 to 25 μg/mL, which were used for inoculation of Staphylococcus aureus subsp. aureus. Similarly, the samples were diluted with Mueller Hinton II broth to a concentration of 1000 μg/mL, and then two-fold diluted serially to prepare mediums containing the each sample at a final drug concentration of 0.049 to 100 μg/mL, which were used for inoculating Pseudomonas aeruginosa.
(§3) To a U-shaped well microplate, 0.1±0.02 mL per well of the each prepared test substance-containing medium was dispensed. Drug-free medium was dispensed into two wells as a control.
(§4) Staphylococcus aureus subsp. aureus or Pseudomonas aeruginosa was cultured overnight in Mueller Hinton II agar medium. The fresh cultured bacterium on the agar plate was suspended in equivalent to 0.5 McFarand (about 10^8 CFU/mL) with sterilized saline and further diluted tenfold (about 10^7 CFU/mL) with sterilized saline to prepare a bacterium liquid.
(§5) To each of the wells to which the test substance-containing medium or the test substance-free medium was dispensed, 0.005 mL of the bacterium liquid of Staphylococcus aureus subsp. aureus or Pseudomonas aeruginosa prepared in the above (2-2) was inoculated (final amount of bacterium liquid: about 10^4 CFU/well). The bacterium liquid was not inoculated to a part of the wells with the test substance-free medium to prepare negative control wells. After inoculation, the media were cultured at 35±1° C. for 18 to 24 hours.
(§6) After confirming growth in the control wells containing the test substance-free media, the minimum inhibitory concentration (MIC) was determined as the minimum drug concentration in which the growth of bacterium was not detected with the naked eye. […] When turbidity or a precipitation was not observed with the naked eye, or when only one precipitation with the diameter of 1 mm or less was observed, the growth was determined negative (−).

[1] = test system: Staphylococcus aureus subsp. aureus; test: as above; assay type: cell-based; conditions: 35±1° C., 18 to 24 hours, replicates
Procedure: as §1, §2, §3, §4, §5, §6

[2] = Stability test of nanoized clarithromycin suspension formulation, residual ratio by HPLC (Example 10); assay type: physicochemical; conditions: 5° C., 25° C. and 40° C., 14 days
Procedure: A quantity of 6 to 8 g of the nanoized clarithromycin suspension formulations (clarithromycin concentrations 0.3% and 1.0%) produced in Example 7 (1) were weighed in a 9 mL-screw vial, allowed to stand in thermo-hygrostats each set at 5° C., 25° C., and 40° C. to carry out the stability test over a period of 14 days. On days 7 and 14, the clarithromycin concentrations were determined by high performance liquid chromatography (HPLC), and the residual ratio was determined as compared to the clarithromycin concentration immediately after the formulation which was taken as 100% to evaluate the stability. The HPLC analysis conditions were as follows.
Apparatus: Waters alliance
Column: Inertsil ODS 4.6 mm×150 mm
Column temperature: 50° C.
Detection wavelength: 210 nm

[3] = formulation with effective average diameter of less than 2000 nm combined with a surface stabilizer (Patent Literature 4); cited from earlier work
[4] = test system: nontuberculous mycobacteria; conditions: cited from earlier work
[5] = cited from earlier work
[6] = rabbit, in vivo; cited from earlier work

SMILES	MIC (Pseudomonas aeruginosa)	Minimum inhibitory concentration (Pseudomonas aeruginosa)	MIC [1]	Minimum inhibitory concentration [1]	stability (decomposition) in the suspension formulations [2]	oral bioavailability [3]	effectiveness against nontuberculous mycobacteria relative to azithromycin [4]	solubility in acetone ([5]; acetone)	solubility in chloroform ([5]; chloroform)	solubility in ethanol ([5]; ethanol)	solubility in ether ([5]; ether)	solubility ([5]; formulation with effective average diameter of less than 2000 nm combined with a surface stabilizer (Patent Literature 4))	solubility in methanol ([5]; methanol)	solubility ([5]; pulverized with L-ascorbic-acid 2-glycoside (Non Patent Literature 1))	solubility in water ([5]; water)	retention in the cornea [6]
CC[C@H]1OC(=O)[C@H](C)[C@@H](O[C@H]2C[C@@](C)(OC)[C@@H](O)[C@H](C)O2)[C@H](C)[C@@H](O[C@@H]2O[C@H](C)C[C@H](N(C)C)[C@H]2O)[C@](C)(OC)C[C@@H](C)C(=O)[C@H](C)[C@@H](O)[C@]1(C)O [Clarithromycin solution in DMSO, clarithromycin]	> 100 µg/mL	>100 µg/mL	0.391 µg/mL (≈ 0.523 µM)	0.391 µg/mL (≈ 0.523 µM)												
CC[C@H]1OC(=O)[C@H](C)[C@@H](O[C@H]2C[C@@](C)(OC)[C@@H](O)[C@H](C)O2)[C@H](C)[C@@H](O[C@@H]2O[C@H](C)C[C@H](N(C)C)[C@H]2O)[C@](C)(OC)C[C@@H](C)C(=O)[C@H](C)[C@@H](O)[C@]1(C)O [clarithromycin]					not decomposed but stable	higher oral bioavailability	four to eight times as effective as azithromycin	slightly soluble	slightly soluble	very slightly soluble	very slightly soluble	higher solubility	very slightly soluble	enhanced solubility	practically insoluble	retained in the cornea
